Series [1] has as its system Pseudomonas aeruginosa. The experiment in a line: Growth inhibition of Pseudomonas aeruginosa MH602 at 1 mM after 24 hrs relative to control. To be noted: MH602, 24 h, read-out: GI.
Series [2] concerns Escherichia coli. The experiment in a line: Growth inhibition of Escherichia coli MT102 at 2 mM after 24 hrs relative to control. The following applies: MT102, 24 h, read-out: GI.
In series [3] the test system is Pseudomonas aeruginosa. The series can be described thus: Growth inhibition of Pseudomonas aeruginosa MH602 at 2 mM after 8 hrs relative to control. The following applies: MH602, 8 h, read-out: GI.
In series [4] the test system is Escherichia coli. The series can be described thus: Growth inhibition of Escherichia coli MT102 at 500 uM after 24 hrs relative to control. To be noted: MT102, 24 h, read-out: GI.
The subject of series [5] is Escherichia coli. The series can be described thus: Inhibition of LuxR-dependent quorum sensing activity in Escherichia coli MT102 harboring pJBA132 assessed as inhibition of OHHL-induced GFP expression at 1 mM measured after 8 hrs by fluorescence assay relative to control.
Series [6] relates to Pseudomonas aeruginosa. The experiment in a line: Growth inhibition of Pseudomonas aeruginosa MH602 at 2 mM after 24 hrs relative to control. To be noted: MH602, 24 h, read-out: GI.
For series [7], the system named is Pseudomonas aeruginosa. The experiment in a line: Inhibition of LasR-dependent quorum sensing activity in Pseudomonas aeruginosa MH602 harboring GFP-fused […] LasB promoter assessed as inhibition of 3-oxo-dodecanoyl HSL-induced GFP expression at 1 mM measured after 8 hrs by fluorescence assay relative to control.
The test system of series [8] is Pseudomonas aeruginosa. The experiment in a line: Inhibition of LasR-dependent quorum sensing activity in Pseudomonas aeruginosa MH602 harboring GFP-fused […] LasB promoter assessed as inhibition of 3-oxo-dodecanoyl HSL-induced GFP expression at 2 mM measured after 8 hrs by fluorescence assay relative to control.
In series [9] the test system is Pseudomonas aeruginosa. The series can be described thus: Growth inhibition of Pseudomonas aeruginosa MH602 at 500 uM after 24 hrs relative to control. To be noted: MH602, 24 h, read-out: GI.
Series [10] relates to Escherichia coli. The series can be described thus: Growth inhibition of Escherichia coli MT102 at 500 uM after 8 hrs relative to control. The following applies: MT102, 8 h, read-out: GI.
The test system of series [11] is Pseudomonas aeruginosa PA14. The experiment in a line: Inhibition of quorum sensing-regulated biofilm formation in Pseudomonas aeruginosa PA14 at 2 mM after overnight incubation by crystal violet staining based assay relative to control.
In series [12] the test system is Escherichia coli. The series can be described thus: Growth inhibition of Escherichia coli MT102 at 2 mM after 8 hrs relative to control. The following applies: MT102, 8 h, read-out: GI.
Series [13] has as its system Escherichia coli. The series can be described thus: Growth inhibition of Escherichia coli MT102 at 1 mM after 24 hrs relative to control. To be noted: MT102, 24 h, read-out: GI.
The subject of series [14] is Escherichia coli. The series can be described thus: Inhibition of LuxR-dependent quorum sensing activity in Escherichia coli MT102 harboring pJBA132 assessed as inhibition of OHHL-induced GFP expression at 1 mM measured after 24 hrs by fluorescence assay relative to control.
Series [15] concerns Pseudomonas aeruginosa. The series can be described thus: Inhibition of LasR-dependent quorum sensing activity in Pseudomonas aeruginosa MH602 harboring GFP-fused […] LasB promoter assessed as inhibition of 3-oxo-dodecanoyl HSL-induced GFP expression at 500 uM measured after 8 hrs by fluorescence assay relative to control.
For series [16], the system named is Escherichia coli. The series can be described thus: Growth inhibition of Escherichia coli MT102 at 1 mM after 8 hrs relative to control. To be noted: MT102, 8 h, read-out: GI.
The test system of series [17] is Escherichia coli. The experiment in a line: Inhibition of LuxR-dependent quorum sensing activity in Escherichia coli MT102 harboring pJBA132 assessed as inhibition of OHHL-induced GFP expression at 2 mM measured after 24 hrs by fluorescence assay relative to control.
Series [18] has as its system Pseudomonas aeruginosa. The series can be described thus: Growth inhibition of Pseudomonas aeruginosa MH602 at 500 uM after 8 hrs relative to control. The following applies: MH602, 8 h, read-out: GI.
Series [19] has as its system Pseudomonas aeruginosa. The series can be described thus: Growth inhibition of Pseudomonas aeruginosa PA14 at 2 mM after 24 hrs relative to control. To be noted: 2000 µM.
Series [20] deals with Pseudomonas aeruginosa. The experiment in a line: Growth inhibition of Pseudomonas aeruginosa MH602 at 1 mM after 8 hrs relative to control. The following applies: MH602, 8 h, read-out: GI.
Series [21] deals with Escherichia coli. The experiment in a line: Inhibition of LuxR-dependent quorum sensing activity in Escherichia coli MT102 harboring pJBA132 assessed as inhibition of OHHL-induced GFP expression at 2 mM measured after 8 hrs by fluorescence assay relative to control.
The subject of series [22] is Escherichia coli. The experiment in a line: Inhibition of LuxR-dependent quorum sensing activity in Escherichia coli MT102 harboring pJBA132 assessed as inhibition of OHHL-induced GFP expression at 500 uM measured after 8 hrs by fluorescence assay relative to control.
Series [23] relates to Pseudomonas aeruginosa. The experiment in a line: Inhibition of LasR-dependent quorum sensing activity in Pseudomonas aeruginosa MH602 harboring GFP-fused […] LasB promoter assessed as inhibition of 3-oxo-dodecanoyl HSL-induced GFP expression at 2 mM measured after 24 hrs by fluorescence assay relative to control.
The subject of series [24] is Pseudomonas aeruginosa PA14. The series can be described thus: Inhibition of quorum sensing-regulated pyocyanin production in Pseudomonas aeruginosa PA14 at 2 mM after 24 hrs relative to control.

Take `CCCCCC(=O)N[C@@H]1[C@@H](O)[C@H](O)[C@@H](CO)O[C@H]1O`: the inhibition at 1000 µM with Pseudomonas aeruginosa [1] is 19.2%; with Escherichia coli [13], 8.4%; in the series on Escherichia coli [16], 11.7%; in the series with Pseudomonas aeruginosa [20] it was 10.5%. For the same molecule, the inhibition at 2000 µM was 0% with Escherichia coli [2], 19% in the series with Pseudomonas aeruginosa [3], 3.1% in the series on Pseudomonas aeruginosa [6] and 24.6% in the series with Escherichia coli [12]. Moreover, the inhibition at 500 µM came to 0% in the series with Escherichia coli [4], 0% with Pseudomonas aeruginosa [9], 0% with Escherichia coli [10] and 7.1% in the series with Pseudomonas aeruginosa [18]. The inhibition came out at 10.7% with Escherichia coli [5]; 13.1% in the series on Pseudomonas aeruginosa [7]; 10% in the series on Pseudomonas aeruginosa [8]; 9% in [11]; 15.8% in the series with Escherichia coli [14]; 12.9% with Pseudomonas aeruginosa [15]. Besides, the inhibition in the series with Escherichia coli [17] was 42.7%. For the same molecule, the “growth inhibition (GI)” value in the series with Pseudomonas aeruginosa [19] is recorded as “Non-Toxic”.

For `CC(=O)OC[C@H]1O[C@@H](OC(C)=O)[C@H](NC(=O)CC(=O)CCCc2ccccc2)[C@@H](OC(C)=O)[C@@H]1OC(C)=O`, the inhibition at 1000 µM was determined as 19.6% in the series on Pseudomonas aeruginosa [1], 4.9% in the series with Escherichia coli [13], 2.6% in the series on Escherichia coli [16] and 11.7% in the series on Pseudomonas aeruginosa [20]. The inhibition at 2000 µM with Escherichia coli [2] worked out at 5.1%; in the series on Pseudomonas aeruginosa [3], 24.8%; with Pseudomonas aeruginosa [6], 0%; in the series with Escherichia coli [12] it was 21.8%. The inhibition at 500 µM in the series on Escherichia coli [4] worked out at 0%; in the series on Pseudomonas aeruginosa [9], 0%; in the series on Escherichia coli [10], 3.3%; with Pseudomonas aeruginosa [18], 0%. The inhibition turned out to be 26% with Escherichia coli [5]; 24.4% with Pseudomonas aeruginosa [8]; 12.8% in the series on Escherichia coli [21]; 43.4% in the series on Escherichia coli [14]; 6.5% with Pseudomonas aeruginosa [15]; 34.2% in the series with Escherichia coli [17]. In the series on Pseudomonas aeruginosa [19], the “growth inhibition (GI)” value is “Non-Toxic”.

In the case of `CC(=O)OC[C@H]1O[C@@H](OC(C)=O)[C@H](NC(=O)CCc2c[nH]c3ccccc23)[C@@H](OC(C)=O)[C@@H]1OC(C)=O`, the inhibition was 13.5% in the series on Escherichia coli [22]; 2.3% in the series with Escherichia coli [5]; 7.4% in the series on Pseudomonas aeruginosa [23]; 32.6% in the series on Pseudomonas aeruginosa [7]; 53.8% in the series on Pseudomonas aeruginosa [8]; 65.5% in the series with Escherichia coli [21]. Also, the inhibition came to 9.3% with Pseudomonas aeruginosa [15] and 28.5% in the series with Escherichia coli [17]. Moreover, the inhibition at 1000 µM in the series on Pseudomonas aeruginosa [1] is 3.5%; in the series on Escherichia coli [13], 0%; in the series with Escherichia coli [16], 0%; with Pseudomonas aeruginosa [20], 0%. Besides, the inhibition at 2000 µM in the series on Escherichia coli [2], in the series on Pseudomonas aeruginosa [3], with Pseudomonas aeruginosa [6] and in the series with Escherichia coli [12] was 0% throughout. Moreover, the inhibition at 500 µM was determined as 2.6% in the series on Escherichia coli [4], 3.5% in the series on Pseudomonas aeruginosa [9], 0% in the series with Escherichia coli [10] and 2.3% in the series with Pseudomonas aeruginosa [18]. Also, the “growth inhibition (GI)” value in the series on Pseudomonas aeruginosa [19] is “Non-Toxic”.

Take `CCCCCCCCCC(=O)N[C@@H]1[C@@H](O)[C@H](O)[C@@H](CO)O[C@H]1O`: the inhibition at 1000 µM with Pseudomonas aeruginosa [1] was found to be 30.2%; with Escherichia coli [13], 20%; with Escherichia coli [16], 45%; with Pseudomonas aeruginosa [20], 20.4%. For the same molecule, the inhibition at 2000 µM with Escherichia coli [2] stood at 12.3%; in the series with Pseudomonas aeruginosa [3], 17.6%; in the series with Pseudomonas aeruginosa [6] it was 0%; with Escherichia coli [12] it was 38.2%. The inhibition at 500 µM came to 15.3% in the series with Escherichia coli [4], 16.4% in the series with Pseudomonas aeruginosa [9], 0% in the series with Escherichia coli [10] and 7.8% with Pseudomonas aeruginosa [18]. Also, the inhibition in series [24] is 13.3%; in the series on Escherichia coli [5] it was 16.3%; in the series on Pseudomonas aeruginosa [7] it was 15.6%; with Pseudomonas aeruginosa [8], 11.5%; with Escherichia coli [14] it was 8.5%; with Pseudomonas aeruginosa [15] it was 15.7%. Also, the inhibition in the series on Escherichia coli [17] stood at 23.3%. In addition, in the series on Pseudomonas aeruginosa [19], the “growth inhibition (GI)” value is recorded as “Non-Toxic”.

(Values after ChEMBL document CHEMBL3875216, “Synthesis of antimicrobial glucosamides as bacterial quorum sensing mechanism inhibitors” (Bioorg Med Chem, 2017).)
